What was measured:
calcium metabolism = assay: calciuric effect in rats relative to 1α,25(OH)2 D3 (calcium metabolism); format: in vivo; conditions: number smaller than 1 = less change in calcium excretion
Excerpt: ^b This test determines the calciuric effect in rats of the compound
relative to 1α,25(OH)2 D3. A number smaller than 1
indicates less change in calcium excretion of the compound in question
when compared to 1α,25(OH)2 D3. The test was, as above,
performed exactly as described: L. Binderup and E. Bramm, Biochem.

[1] = acid stability: approximate half life in conc. ^2 HCl/^2 H2 O in C^2 H3 CN determined by ^1 H NMR; format: physicochemical; conditions: dcl/d2o in cd3cn; 10 μl conc. ^2 HCl/^2 H2 O in C^2 H3 CN (0.6 ml), 25° C., ^1 H NMR at 500 MHz
Protocol: | ^c In this test, the compound was treated with a mixture of 10 μl | conc. ^2 HCl/^2 H2 O in C^2 H3 CN (0.6 ml) at | 25° C. and the approximate half life was determined by ^1 H NM | at 500 MHz.

[2] = tested on: U937 human histiocytic leukemia cells; assay: antiproliferative effect in U937 human histiocytic leukemia cells relative to 1α,25(OH)2 D3; format: cell-based; conditions: number greater than 1 = higher antiproliferative activity
Protocol: ^a This test determines the antiproliferative effect in U937 human
histiocytic leukemia cells of the compound relative to
1α,25(OH)2 D3. A number greater than 1 indicates a higher
antiproliferative activity of the compound in question when compared to
1α,25(OH)2 D3. The test was performed exactly as
described: L. Binderup and E. Bramm, Biochem. Pharmacol., 37, (1988)

cells = conditions: Abe, E. et al. (1981); cited from earlier work
[3] = tested on: sebaceous glands in the ears of male Syrian hamsters; conditions: topical application, Malloy, V. L. et al. (1989); cited from earlier work
interleukins = conditions: Muller, K. et al. (1988); cited from earlier work

Row | SMILES | Calcium metabolism (calciuric effect) (calcium metabolism) | half-life [1] [min] | U937, inhib. of prolifer. [2] | cell differentiation and proliferation (cells) | size of sebaceous glands [3] | effects and/or production of interleukins (interleukins)
1 | C=C1/C(=C\C=C2/CCC[C@]3(C)[C@@H]([C@H](C)/C=C/C=C/C(O)(CC)CC)CC[C@@H]23)C[C@@H](O)C[C@@H]1O [EB1089, 1(S),3(R)-Dihydroxy-20(R)-(5'-ethyl-5'-hydroxy-hepta-1' (E),3'(E)-dien-1'-yl)-9,10-secopregna-5(Z),7(E), 10(19)-triene] | 0.4 | < 5 | 68 |  |  | 
2 | C=C1/C(=C\C=C2/CCC[C@]3(C)[C@@H]([C@H](C)/C=C/[C@@H](O)C4CC4)CC[C@@H]23)C[C@@H](O)C[C@@H]1O [Calcipotriol] | 0.005 |  | 1 |  |  | 
3 | C=C1/C(=C\C=C2/CCC[C@]3(C)[C@@H]([C@H](C)CCCC(C)(C)O)CC[C@@H]23)C[C@@H](O)C[C@@H]1O [1,25(OH)2 D3, 1α,25-dihydroxy-vitamin D3] |  |  |  | able to stimulate the differentiation of cells and inhibit excessive cell proliferation | reduces the size of sebaceous glands | influences the effects and/or production of interleukins
4 | C=C1/C(=C\C=C2/CCC[C@]3(C)[C@@H]([C@@H](C)/C=C/C#CC(O)(CC)CC)CC[C@@H]23)C[C@@H](O)C[C@@H]1O [Compound 102, 1(S),3(R)-Dihydroxy-20(S)-(5-ethyl-5-hydroxy-hept-1(E)-en-3-yn-1-yl)-9,10-seco-pregna-5(Z),7(E),10(19)-triene] | 0.015 | 15 to 30 | 1.1 |  |  | 
5 | C=C1/C(=C\C=C2/CCC[C@]3(C)[C@@H]([C@H](C)/C=C/C#CC(O)(CC)CC)CC[C@@H]23)C[C@@H](O)C[C@@H]1O [Compound 101, 1(S),3(R)-Dihydroxy-20(R)-(5-ethyl-5-hydroxy-hept-1(E)-en-3-yn-1-yl)-9,10-seco-pregna-5(Z),7(E),10(19)-triene] | 0.2 |  | 89 |  |  | 
